Values of other authors in patent US8680078B2, “Stable ophthalmic formulations” (Medivis SRL, priority 2008, dated 2014).
Read-outs that look alike come from different tables or passages of the source.

Experiments:
[1] = pH of 5.6

Compound | maximum solubility [1] | time taken by the concentration of latanoprost to drop to 90% of an initial content (50° C.) [h] | time taken by the concentration of latanoprost to drop to 90% of an initial content (75° C.) [h]
CCN[C@H]1C[C@H](C)S(=O)(=O)c2sc(S(N)(=O)=O)cc21.Cl [dorzolamide hydrochloride] | about 50 mg/mL |  | 
CC(C)OC(=O)CCC/C=C\C[C@@H]1[C@@H](CC[C@@H](O)CCc2ccccc2)[C@H](O)C[C@@H]1O [Latanoprost, latanoprost] |  | 198 | 32
